Assay results reported in patent publication US12685790B2, “Stable, concentrated radiopharmaceutical composition” (NOVARTIS AG, priority 2019, dated 2026).

How the values were obtained:
[1] = Radiochemical purity (RCP) stability of 177Lu-NeoB drug product formulations over shelf life (72 h), lab-scale batches; assay type: physicochemical; conditions: Table 7: gentisic acid 1000 μg/mL, ascorbic acid 15000 μg/mL, Kolliphor HS 15 100 μg/mL, about 200 mCi, 10 mCi/mL; end of shelf life (72 hours)
Procedure: “Radiochemical purity”: is that percentage of the stated radionuclide that is present in the stated chemical or biological form. Radiochromatography methods, such as HPLC method or instant Thin Layer Chromatography method (ITLC), are the most commonly accepted methods for determining radiochemical purity in the nuclear pharmacy.
The stability of the ^177Lu-labelled product over 72 hours with the same antioxidant amount present in the Lutathera formulation. In particular, the following conditions are reproduced: […] step; • Kolliphor HS 15:1 mg added before the labelling step; • Peptide: Lu ratio≥1.5; […] during the formulation step; • Final volumetric Activity 10 mCi/mL; • Final pH 4-6; • Reaction buffer: Acetic acid/acetate buffer;
The radiolabelling tests are carried out both manually and automatically by using the MiniAlO synthesizer. The synthesis procedure is developed as follows: • 1. Transferring of ^177LuCl3 into reactor; • 2. Transferring of the reaction buffer into reactor. The reaction buffer is composed of sodium acetate buffer and gentisic acid. The acetate buffer allows to maintain the labelling pH between 4-5, while the gentisic acid protects the peptide from radiolysis during the labelling step; • 3. Addition of the NeoB1 solution containing Kolliphor HS 15 into reactor; • 4. Heating at 95° C. for 5 minutes; […]

[2] = molecular target: GRPR expressed in breast, prostate, and Gastro Intestinal Stromal Tumor (GIST) (Homo sapiens, UniProt P30550); conditions: non-clinical models; cited from earlier work
[3] = molecular target: GRPR (Homo sapiens, UniProt P30550); conditions: non-clinical models; cited from earlier work
GRPR, sequence (P30550 whole entry): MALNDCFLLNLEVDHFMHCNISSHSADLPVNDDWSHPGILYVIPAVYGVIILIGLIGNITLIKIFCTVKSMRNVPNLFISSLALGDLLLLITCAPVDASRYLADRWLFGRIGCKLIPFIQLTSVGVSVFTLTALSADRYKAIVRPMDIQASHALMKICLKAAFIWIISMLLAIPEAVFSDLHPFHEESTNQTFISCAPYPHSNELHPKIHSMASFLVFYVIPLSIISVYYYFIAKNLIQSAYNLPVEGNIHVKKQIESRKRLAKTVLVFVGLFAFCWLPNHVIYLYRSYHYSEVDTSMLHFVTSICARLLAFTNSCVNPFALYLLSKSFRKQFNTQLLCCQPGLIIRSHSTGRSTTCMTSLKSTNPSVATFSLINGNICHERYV

GRPR expressed in breast, prostate, and Gastro Intestinal Stromal Tumor (GIST), sequence (P30550 whole entry): as above

Compound	Radiochemical purity (%) at end of shelf life [1]	affinity to the GRPR [2]	degree of internalization upon binding to the specific receptor [3]
CC(C)CC(CC(C)C)NC(=O)[C@H](Cc1cnc[nH]1)NC(=O)CNC(=O)[C@@H](NC(=O)[C@H](C)NC(=O)[C@H](Cc1c[nH]c2ccccc12)NC(=O)[C@H](CCC(N)=O)NC(=O)[C@@H](Cc1ccccc1)NC(=O)COCC(=O)Nc1ccc(CNC(=O)CN2CCN(CC(=O)O)CCN(CC(=O)O)CCN(CC(=O)O)CC2)cc1)C(C)C [[^177Lu]-NeoB, metal not drawn]	over 95%	–	–
CC(C)CC(CC(C)C)NC(=O)[C@H](Cc1cnc[nH]1)NC(=O)CNC(=O)[C@@H](NC(=O)[C@H](C)NC(=O)[C@H](Cc1c[nH]c2ccccc12)NC(=O)[C@H](CCC(N)=O)NC(=O)[C@@H](Cc1ccccc1)NC(=O)COCC(=O)Nc1ccc(CNC(=O)CN2CCN(CC(=O)O)CCN(CC(=O)O)CCN(CC(=O)O)CC2)cc1)C(C)C [[^68Ga]-NeoB, metal not drawn]	–	high affinity	low degree of internalization
